According to patent publication US20060211725A1, “Use” (Astellas Pharma Inc., priority 2002, published 2006):

Tests used:
Assay type in all cases: in vivo, rat
[1] = test system: F344 kidney allograft in LEW recipient rats; assay: Kidney allograft survival, combination with tacrolimus (Example 2); settings: Tacrolimus 1 mg/kg PO, 0-90 day, alone
Description: The rats and kidney transplantation methods described in Example 1 were used. The compound (I) at dose of 3 mg/kg and tacrolimus at dose of 1 mg/kg, were administered orally to recipient rats daily for 90 days after transplantation. The isograft, untreated allograft, and allograft treated with tacrolimus 1 mg/kg for 90 days alone served as control groups.

[2] = test system: F344 kidney allograft in LEW recipient rats; assay: Recipient kidney function, treatment with brief tacrolimus (Example 4); settings: brief dose of tacrolimus 1 mg/kg day 0-9 alone; allograft control week 7
Description: (§1) The rats and kidney transplantation methods described in Example 1 were used. Tacrolimus at dose of 1 mg/kg from day 0 to day 9 after transplantation, and the compound (I) at doses of 10 mg/kg and 15 mg/kg from day 28 today 60 after transplantation were administered orally to recipient rats. In this study LEW recipients were briefly treated with oral tacrolimus at 1 mg/kg/day for 10 days after transplantation to avoid acute rejection and slow chronic rejection that gradually destroys the F344 kidney graft, resulting in functional and histological changes similar to the chronic rejection in human. The isograft, untreated allograft and allograft treated with tacrolimus 1 mg/kg for 10 days alone served as control groups. Blood and urine samples were collected once a week from recipients with kidney grafts described in Example 1 for measuring their plasma creatinine and proteinuria. Plasma creatinine was tested by Sigma Creatinine Kit and proteinuria by Bio-Rad Protein assay.

[3] = test system: F344 kidney allograft in LEW recipient rats; assay: Kidney allograft survival, treatment with brief tacrolimus (Example 4); settings: Tacrolimus 1 mg/kg PO, 0-9 day, alone
Description: as §1

Compound: C=CC[C@@H]1/C=C(\C)C[C@H](C)C[C@H](OC)[C@H]2O[C@@](O)(C(=O)C(=O)N3CCCC[C@H]3C(=O)O[C@H](/C(C)=C/[C@@H]3CC[C@@H](O)[C@H](OC)C3)[C@H](C)[C@@H](O)CC1=O)[C@H](C)C[C@@H]2OC [Tacrolimus, tacrolimus]
- Survival day ([1]; n=4): >90 days
- Survival rate (90 days) ([1]; untreated allograft 40%): 100%
- week post transplantation after which plasma creatinine increased rapidly [2]: 8 week
- Survival day ([3]; n=5): >90 days
- Survival rate ([3]; untreated allograft 40%): 100%
